For assay [1], the target named is SMO V386A (Homo sapiens, UniProt Q99835, V386A). Put plainly: Hedgehog signaling assay. The note with it: 100 nM vismodegib and SHH-N ligand. Type of assay: cell-based.
In assay [2] the target is SMO H231R (Homo sapiens, UniProt Q99835, H231R). The assay can be described thus: Hedgehog signaling assay. Type of assay: cell-based. The note with it: 100 nM vismodegib and SHH-N ligand.
Assay [3] addresses SMO D473G (Homo sapiens, UniProt Q99835, D473G). The assay can be described thus: Hedgehog signaling assay. The class given is cell-based. To be noted: 100 nM vismodegib and SHH-N ligand.
Assay [4] concerns the target SMO W281C (Homo sapiens, UniProt Q99835, W281C). Put plainly: Hedgehog signaling assay. Type of assay: cell-based. The note with it: 100 nM vismodegib and SHH-N ligand.
Assay [5] concerns the target SMO Q477E (Homo sapiens, UniProt Q99835, Q477E). The assay can be described thus: Hedgehog signaling assay. Type of assay: cell-based. The note with it: 100 nM vismodegib and SHH-N ligand.
Assay [6] addresses SMO F460L (Homo sapiens, UniProt Q99835, F460L). The assay can be described thus: Hedgehog signaling assay. Type of assay: cell-based. To be noted: SHH-N CM, 100 nM vismodegib.
For assay [7], the target named is SMO V321M (Homo sapiens, UniProt Q99835, V321M). The assay can be described thus: Hedgehog signaling assay. The class given is cell-based. The note with it: SHH-N CM, 100 nM vismodegib.
Sequence of SMO V321M (Q99835 28-787 V321M): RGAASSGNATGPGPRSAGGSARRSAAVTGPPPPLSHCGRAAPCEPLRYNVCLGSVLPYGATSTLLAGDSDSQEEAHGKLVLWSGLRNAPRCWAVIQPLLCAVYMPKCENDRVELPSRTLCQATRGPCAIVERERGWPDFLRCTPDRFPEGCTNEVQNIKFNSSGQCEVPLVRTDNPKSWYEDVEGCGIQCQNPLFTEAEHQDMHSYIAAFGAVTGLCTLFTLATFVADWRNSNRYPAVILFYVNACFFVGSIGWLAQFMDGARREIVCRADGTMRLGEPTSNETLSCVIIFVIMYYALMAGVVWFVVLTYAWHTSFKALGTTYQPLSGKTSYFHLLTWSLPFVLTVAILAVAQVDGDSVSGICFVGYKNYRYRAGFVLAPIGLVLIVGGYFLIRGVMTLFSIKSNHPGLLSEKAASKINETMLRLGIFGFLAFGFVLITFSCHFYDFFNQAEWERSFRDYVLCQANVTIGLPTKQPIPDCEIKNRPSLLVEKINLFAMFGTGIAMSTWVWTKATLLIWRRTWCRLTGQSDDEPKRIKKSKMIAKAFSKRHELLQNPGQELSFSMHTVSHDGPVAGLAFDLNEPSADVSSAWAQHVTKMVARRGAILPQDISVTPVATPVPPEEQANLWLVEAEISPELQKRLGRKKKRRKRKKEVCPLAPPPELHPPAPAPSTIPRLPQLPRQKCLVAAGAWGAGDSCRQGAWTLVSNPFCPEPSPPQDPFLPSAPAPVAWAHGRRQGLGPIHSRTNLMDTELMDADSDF
Assay [8] deals with SMO L412F (Homo sapiens, UniProt Q99835, L412F). The assay can be described thus: Hedgehog signaling assay. The class given is cell-based. The note with it: SHH-N CM, 100 nM vismodegib.
Sequence of SMO L412F (Q99835 28-787 L412F): as the sequence (Q99835 28-787 V321M) above, with M294V, L385F counted along it
The target in assay [9] is SMO Q635E (Homo sapiens, UniProt Q99835, Q635E). To be noted: SHH-N CM, 10, 20 or 80 nM vismodegib.
Sequence of SMO Q635E (Q99835 28-787 Q635E): as the sequence (Q99835 28-787 V321M) above, with M294V, Q608E counted along it
Assay [10] relates to advanced and metastatic BCCs. To be noted: 2012, cited from earlier work.
Assay [11] relates to syndromic BCCs in patients with Basal Cell Nevus Syndrome. To be noted: Gorlin, inherited PTCH1 loss; ref Tang et al., 2012; cited from earlier work.
Assay [12] relates to SMO-LBP and SMO-CA variants. The assay can be described thus: HH pathway activity. The note with it: […] nM vismodegib (4-fold greater than IC50), SHH-N CM.

This is an account of results in paper PMC4357167 (Cancer cell, 2015).

Sequence of SMO D473G (Q99835 28-787 D473G): as the sequence (Q99835 28-787 V321M) above, with M294V, D446G counted along it
Sequence of SMO V386A (Q99835 28-787 V386A): as the sequence (Q99835 28-787 V321M) above, with M294V, V359A counted along it
Sequence of SMO Q477E (Q99835 28-787 Q477E): as the sequence (Q99835 28-787 V321M) above, with M294V, Q450E counted along it
Sequence of SMO W281C (Q99835 28-787 W281C): as the sequence (Q99835 28-787 V321M) above, with W254C, M294V counted along it
Sequence of SMO H231R (Q99835 28-787 H231R): as the sequence (Q99835 28-787 V321M) above, with H204R, M294V counted along it
Sequence of SMO F460L (Q99835 28-787 F460L): as the sequence (Q99835 28-787 V321M) above, with M294V, F433L counted along it

Regarding `CS(=O)(=O)c1ccc(C(=O)Nc2ccc(Cl)c(-c3ccccn3)c2)c(Cl)c1` [vismodegib], the “HH activity (Gli1 mRNA) in the presence of drug” value in assay [1] is given as “response similar to SMO WT”; in assay [2], “retained high levels of HH activity”; in assay [3], “retained high levels of HH activity”; in [4] it was “retained high levels of HH activity”; in assay [5] it was “retained high levels of HH activity”. In addition, the “HH pathway activity, responsiveness to drug” value in assay [6], in assay [7] and in assay [8] was “partially or completely unresponsive” each time. Also, the “HH pathway activity, resistance at low drug concentrations” value in assay [9] is on record as “resistance at low but not high vismodegib concentrations”. In addition, the “patients developing resistance during the first year” value in [10] (additional to non-responders, ref Chang and Oro) was 20%. Also, the overall response rate in assay [10] (advanced and metastatic BCCs, ref Axelson et al., 2013, Sekulic et al.) was 48%. In addition, the clinical response entry in assay [11] is “respond to vismodegib and have a low rate of acquired resistance”. Besides, the “HH pathway activity (Gli1 mRNA) in the presence of SMO variants” value in [12] is listed as “partial or complete resistance”.
